Test results taken from paper PMC12541891 (MicrobiologyOpen, 2025).
Several values for one entry are separate records, joined by “and”; a condition that tells them apart may be missing. Equal values may be shown once.

Assays:
MRSA biofilm = assay: Biofilm biomass by crystal violet (CV) assay; format: cell-based, Staphylococcus aureus
Protocol: (§1) For all bacterial strains considered in the study, biofilm was performed on a 96‐well plate inoculated with 200 µL of a bacterial suspension 1 × 10^6 CFU/mL and incubated 24 h at 37°C. After incubation for 4 h at 37°C, the medium was aspirated, non‐adherent cells were removed, washed with PBS and added with 200 µL of fresh medium. […] Similarly, to perform fungal biofilm, the different Candida species were grown for 24 h at 28°C on a multi‐wells plate, washed twice with sterile PBS, and then resuspended at 37°C in RPMI 1640 plus 10% FBS at 2.5 × 10^7 cells. After incubation for 3 h at 37°C in six‐well polystyrene plates, the medium was aspirated, non‐adherent cells were removed and washed with PBS.
(§2) To quantify bacterial and Candida biofilm biomass, CV, a dye able to color the biofilm matrix, was used. Firstly, after the removal of supernatant and washing with PBS, biofilm was fixed adding 100 µL of 99% methanol for 15 min. Then, methanol was rinsed off and the plates were air‐dried. Subsequently, 100 µL of a 0.1% of CV solution were added to wells and, after 20 min of contact, the plates were washed under running tap water. To dissolve the bounded CV, 150 µL of 33% of glacial acetic acid were added to wells. The absorbance was measured at 590 nm using an automatic microplate reader, Tecan Sunrise (Tecan Group Ltd., Männedorf, Switzerland).

S. aureus biofilm = assay: Biofilm biomass by crystal violet (CV) assay; format: cell-based, Staphylococcus aureus; conditions: substance alone at MIC
Protocol: as §1, §2

C. glabrata biofilm = assay: Biofilm biomass by crystal violet (CV) assay; format: cell-based, Candida glabrata
Protocol: as §1, §2

C. krusei biofilm = assay: Biofilm biomass by crystal violet (CV) assay; format: cell-based, Candida krusei; conditions: substance alone at MIC
Protocol: as §1, §2

C. tropicalis biofilm = assay: Biofilm metabolic activity by XTT-reduction assay; format: cell-based, Candida tropicalis
Protocol: as §1
The biofilm metabolic activity was evaluated by XTT assay, that highpoints the activity through the reduction of the tetrazolium salt to formazan. After the removal of supernatant and washing with PBS, a solution of XTT‐menadione solution were added to wells. The XTT‐menadione was prepared dissolving XTT powder in prewarmed PBS (37°C) at 0.5 g/L. The solution was sterilized through a 0.22 μm pore size filter. Before each assay, the XTT solution was thawed and supplemented with menadione, a 10 mM stock dissolved in acetone to a final concentration 1 μM. Plates were incubated for 3 h at 37°C in the dark and then the absorbance was measured at 492 nm using the microplate reader, Tecan Sunrise.

A549 cell line = assay: MTT cytotoxicity assay; conditions: A549, 24 h contact, 15-125 µg/mL tested
Protocol: (§3) These cell lines were purchased from the American Type Culture Collection (ATCC HTB‐37, Rockville, USA) and stored in liquid nitrogen. T24 cells were cultured in RPMI, supplemented with 10% FBS, 2 mM glutamine, 100 U/mL penicillin, and 100 µg/mL streptomycin. A549 and Caco‐2 cells were cultured in DMEM, supplemented with 10% FBS, 100 U/mL penicillin and 100 μg/mL streptomycin. Cultures were incubated at 37°C in a humidified 5% CO2 atmosphere.
(§4) In a 96‐well plate, 200 μL of cell suspension (10^4 cells/well) were added to each well and plates were incubated at 37°C, 5% CO2. […] Untreated cells were taken as control. After 24 h of treatment, culture medium was replaced with 200 μL of fresh medium added with MTT (5 mg/mL), then plates were incubated for 4 h at 37°C, 5% CO2 atmosphere. Afterward, culture medium with MTT was removed and 200 μl of DMSO were added to each well to dissolve the formazan crystals formed in living cells. After 15 min of incubation, the absorbance was measured at 570 nm, with the reference set at 620 nm, using the automatic microplate reader, Tecan Sunrise (Kumar et al. [2018]). Controls in all the experiments were: (i) wells without the substances assayed, as positive cells growth control; (ii) wells added with ethanol or DMSO in the same amounts in which the substances were suspended, as cells growth control in presence of the substances' solvents.

Caco-2 cell line = assay: MTT cytotoxicity assay; conditions: Caco-2, 24 h contact, 15-125 µg/mL tested
Protocol: as §3, §4

[1] = preformed biofilm (24 h), substance alone at MIC
[2] = biofilm in formation, sub-MIC concentrations alone or in combination (Table 5), listed as C
[3] = preformed biofilm, sub-MIC concentrations alone or in combination (Table 5), listed as C

Structure (SMILES): Cc1ccc(C(C)C)cc1O [Carvacrol, 2‐methyl‐5‐isopropyl phenol]
- Percentage of biomass reduction (MRSA biofilm; biofilm in formation (4 h), substance alone at MIC): 26.7%
- Percentage of biomass reduction (MRSA biofilm; biofilm in formation, sub-MIC concentrations alone or in combination (Table 5)): 30%
- Percentage of biomass reduction (MRSA biofilm; [1]): 58%
- Percentage of biomass reduction (S. aureus biofilm; biofilm in formation (4 h)): 56.2%
- Percentage of biomass reduction (S. aureus biofilm; preformed biofilm (24 h)): 71.5%
- Percentage of biomass reduction (C. glabrata biofilm; [2]): 64.9%
- Percentage of biomass reduction (C. glabrata biofilm; [1]): 52.9%
- Percentage of biomass reduction (C. glabrata biofilm; [3]): 44.3%
- Percentage of biomass reduction (C. krusei biofilm; biofilm in formation (3 h)): 18% and 18.4%
- Percentage of biomass reduction (C. krusei biofilm; preformed biofilm (24 h)): 39.2%
- Percentage of metabolic activity reduction (C. tropicalis biofilm; biofilm in formation (3 h), substance alone at MIC): 88.7%
- Percentage of metabolic activity reduction (C. tropicalis biofilm; [2]): 35.0%
- Percentage of metabolic activity reduction (C. tropicalis biofilm; [1]): 72.8%
- Percentage of metabolic activity reduction (C. tropicalis biofilm; [3]): 26.1%
- concentrations significantly cytotoxic (A549 cell line): > 31000 ng/mL
- concentrations significantly cytotoxic (Caco-2 cell line): > 31000 ng/mL
